Data: ChEMBL document CHEMBL2384931, “PAK1: A Therapeutic Target for Cancer Treatment” (ACS Med Chem Lett, 2013)
pIC50, pKi: −log10 of the molar value.

Tests used:
[1] = target: Serine/threonine-protein kinase PAK 3 (Homo sapiens, UniProt O75914); assay: Inhibition of PAK3-mediated MEK1 phosphorylation at Ser298 in human EBC1 cells after 2 hrs by HTRF assay; type: cell-based; details: pooled result: one value given for 3 cell lines, strains, targets or settings
[2] = target: Serine/threonine-protein kinase PAK 1 (Homo sapiens, UniProt Q13153); assay: Inhibition of human recombinant GST-tagged PAK1 kinase domain-mediated 5FAM-RRRLSFAEPG phosphorylation expressed in Sf9 cells preincubated for 10 mins prior to substrate addition measured after 30 mins by microfluidic mobility shift assay
Serine/threonine-protein kinase PAK 1, sequence (Q13153 whole entry, the tested form may be a part): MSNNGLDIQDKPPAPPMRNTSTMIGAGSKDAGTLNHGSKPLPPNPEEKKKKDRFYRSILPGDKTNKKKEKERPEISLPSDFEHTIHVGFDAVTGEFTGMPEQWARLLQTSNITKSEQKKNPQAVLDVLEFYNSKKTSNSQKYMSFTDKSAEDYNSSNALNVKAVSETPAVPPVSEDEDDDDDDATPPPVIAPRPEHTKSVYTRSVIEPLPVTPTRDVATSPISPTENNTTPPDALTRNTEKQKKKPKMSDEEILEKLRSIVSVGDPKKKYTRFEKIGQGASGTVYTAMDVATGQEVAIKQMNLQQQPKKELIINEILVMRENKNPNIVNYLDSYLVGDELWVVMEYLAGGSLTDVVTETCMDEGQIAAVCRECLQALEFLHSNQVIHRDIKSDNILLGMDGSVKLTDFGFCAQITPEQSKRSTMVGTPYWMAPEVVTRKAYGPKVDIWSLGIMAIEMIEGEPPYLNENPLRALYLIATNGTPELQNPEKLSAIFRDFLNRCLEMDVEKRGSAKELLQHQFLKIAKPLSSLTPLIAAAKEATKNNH

Serine/threonine-protein kinase PAK 3, sequence (O75914 whole entry, the tested form may be a part): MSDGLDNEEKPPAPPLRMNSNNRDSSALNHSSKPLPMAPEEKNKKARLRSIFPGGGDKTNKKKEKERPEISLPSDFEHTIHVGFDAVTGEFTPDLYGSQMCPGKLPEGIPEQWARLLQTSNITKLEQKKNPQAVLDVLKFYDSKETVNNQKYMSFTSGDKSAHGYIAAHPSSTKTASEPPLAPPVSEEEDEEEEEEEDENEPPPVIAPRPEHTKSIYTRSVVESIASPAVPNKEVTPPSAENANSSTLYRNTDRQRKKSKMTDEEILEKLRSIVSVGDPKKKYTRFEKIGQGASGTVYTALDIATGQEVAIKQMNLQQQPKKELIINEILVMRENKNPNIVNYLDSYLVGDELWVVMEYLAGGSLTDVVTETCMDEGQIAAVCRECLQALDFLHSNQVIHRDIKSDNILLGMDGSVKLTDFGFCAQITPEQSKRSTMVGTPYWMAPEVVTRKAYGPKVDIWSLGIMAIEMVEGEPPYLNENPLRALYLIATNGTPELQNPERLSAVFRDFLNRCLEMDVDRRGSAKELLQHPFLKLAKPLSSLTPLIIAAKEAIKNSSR

| Structure (SMILES) | pIC50 [1] | pKi [2] |
| --- | --- | --- |
| COCCN(Cc1cc(F)cc2[nH]ncc12)c1nccc(Nc2cc(C3CC3)[nH]n2)n1 | 7.19 | – |
| C[C@H](Nc1nccc(Nc2cc(C3CCC3)[nH]n2)n1)c1ccc2[nH]ccc2c1 | 6.88 | – |
| CC(CO)N(Cc1cc(F)cc2[nH]ncc12)c1nccc(Nc2cc(C3CC3)[nH]n2)n1 (stereo not given) | 7.15 | – |
| C[C@H](Nc1nccc(Nc2cc(C3CC3(F)F)[nH]n2)n1)c1ccc2[nH]cnc2c1 (stereo not given in full) | 6.61 | 8.29 |
